# Test results: ChEMBL document CHEMBL1141966, “Novel triazole based inhibitors of Ras farnesyl transferase” (Bioorg Med Chem Lett, 2005)
# Molecular target: Protein farnesyltransferase (Homo sapiens, UniProt P49354+P49356)
# Assay: Inhibitory activity against K-Ras farnesyl transferase
# Format: protein-complex assay
row,SMILES,IC50
1,COc1ccc(CCN(Cc2nncn2Cc2ccc(C#N)cc2)C(=O)c2ccc3ccccc3n2)cc1,75 nM
2,N#Cc1ccc(Cn2cnnc2CN(C(=O)c2ccc3ccccc3n2)c2ccc(Oc3ccccc3)cc2)cc1,44 nM
3,N#Cc1ccc(Cn2nnnc2CN(Cc2ccc(F)cc2F)C(=O)c2ccc3ccccc3n2)cc1,> 1000 nM
4,N#Cc1ccc(Cn2cnnc2CN(CCc2ccc(Br)cc2)C(=O)c2cc3ccccc3s2)cc1,89.3 nM
5,N#Cc1ccc(Cn2cncc2CN(Cc2ccc(F)cc2F)C(=O)c2ccc3ccccc3n2)cc1,187 nM
6,N#Cc1ccc(Cn2cnnc2CN(CCc2ccc(Br)cc2)C(=O)c2cc3ccccc3o2)cc1,53.2 nM
7,N#Cc1ccc(Cn2cnnc2CN(CCc2ccc(Br)cc2)C(=O)c2ccc3c(c2)OCO3)cc1,61 nM
8,N#Cc1ccc(Cn2cnnc2CN(CCc2ccc(Br)cc2)C(=O)c2ccco2)cc1,99.3 nM
9,COc1cc(C(=O)N(CCc2ccc(Br)cc2)Cc2nncn2Cc2ccc(C#N)cc2)nc2ccccc12,96.5 nM

# Molecules with a lower IC50, results first:
row,IC50,SMILES
1,2.2 nM,N#Cc1ccc(Cn2cnnc2CN(Cc2ccc(F)cc2F)C(=O)c2ccc3ccccc3c2)cc1
2,19 nM,N#Cc1ccc(Cn2cnnc2CN(CCc2ccc(F)cc2)C(=O)c2ccc3ccccc3n2)cc1
3,1.6 nM,N#Cc1ccc(Cn2cnnc2CN(Cc2ccc([N+](=O)[O-])cc2)C(=O)c2ccc3ccccc3n2)cc1
4,28.3 nM,N#Cc1ccc(Cn2cnnc2CN(CCc2ccc(Br)cc2)C(=O)c2ccc3ccccc3c2)cc1
5,26 nM,N#Cc1ccc(Cn2cnnc2CN(CCc2ccc(Br)cc2)C(=O)c2ccc3ccccc3n2)cc1
6,5 nM,N#Cc1ccc(Cn2cnnc2CN(Cc2ccc(F)cc2)C(=O)c2ccc3ccccc3n2)cc1
7,5.5 nM,N#Cc1ccc(Cn2cnnc2CN(Cc2ccc(F)cc2F)C(=O)c2ccc3ccccc3n2)nc1
8,0.9 nM,Cc1nnc(CN(Cc2ccc(F)cc2F)C(=O)c2ccc3ccccc3n2)n1Cc1ccc(C#N)cc1
9,3.5 nM,N#Cc1ccc(Cn2cnnc2CN(Cc2ccc(F)cc2F)C(=O)c2ccc3ccccc3n2)cc1
